Test results reported in patent US12492188B2, “1H-benzo[D]imidazole derivatives as TLR9 inhibitors for the treatment of fibrosis” (BRISTOL-MYERS SQUIBB COMPANY, priority 2020, dated 2025).
Where two headings read alike, the source gives them in different places.

How the values were obtained:
Assay type in all cases: cell-based
human TLR8 = target: T1, human TLR8 (Homo sapiens, UniProt Q9NR97); assay: TLR8 inhibition reporter assay (HEK-Blue cells, secreted embryonic alkaline phosphatase reporter); details: HEK-Blue cells overexpressing human TLR8, stimulated with R848 15.9 μM; read-out: TLR 8 IC50
T1 construct: host or cells: HEK-Blue cells (HEK293-derived reporter line)
T1 sequence (Q9NR97 27-1041): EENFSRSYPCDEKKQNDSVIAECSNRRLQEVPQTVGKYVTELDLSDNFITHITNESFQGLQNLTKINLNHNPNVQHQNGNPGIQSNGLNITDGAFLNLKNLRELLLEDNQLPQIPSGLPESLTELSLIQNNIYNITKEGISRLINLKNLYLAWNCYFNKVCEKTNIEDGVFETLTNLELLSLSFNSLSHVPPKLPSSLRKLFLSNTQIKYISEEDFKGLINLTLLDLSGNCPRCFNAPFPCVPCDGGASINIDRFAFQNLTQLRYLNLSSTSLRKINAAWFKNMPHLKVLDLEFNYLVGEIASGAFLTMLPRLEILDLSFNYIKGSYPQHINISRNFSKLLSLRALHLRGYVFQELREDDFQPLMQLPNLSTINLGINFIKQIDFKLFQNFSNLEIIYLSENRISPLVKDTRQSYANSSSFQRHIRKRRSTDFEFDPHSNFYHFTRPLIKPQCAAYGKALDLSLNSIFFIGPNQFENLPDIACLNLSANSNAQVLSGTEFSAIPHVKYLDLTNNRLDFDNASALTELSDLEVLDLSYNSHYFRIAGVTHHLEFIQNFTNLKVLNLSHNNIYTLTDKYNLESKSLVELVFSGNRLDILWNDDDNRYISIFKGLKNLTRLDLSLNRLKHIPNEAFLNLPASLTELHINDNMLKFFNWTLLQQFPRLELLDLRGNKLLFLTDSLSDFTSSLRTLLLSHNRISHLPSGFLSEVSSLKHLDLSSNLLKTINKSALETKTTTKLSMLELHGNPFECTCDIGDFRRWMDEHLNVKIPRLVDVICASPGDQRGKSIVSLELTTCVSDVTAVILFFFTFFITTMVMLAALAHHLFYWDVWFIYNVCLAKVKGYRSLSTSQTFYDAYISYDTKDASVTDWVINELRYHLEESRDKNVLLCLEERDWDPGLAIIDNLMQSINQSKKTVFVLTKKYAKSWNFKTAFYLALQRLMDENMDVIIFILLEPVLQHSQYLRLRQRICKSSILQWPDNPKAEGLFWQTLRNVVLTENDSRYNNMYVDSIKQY
Method: (§1) TLR7/8/9 Inhibition Reporter Assays
(§2) HEK-Blue™-cells (Invivogen) overexpressing human TLR7, TLR8 or TLR9 receptors were used for screening inhibitors of these receptors using an inducible SLAP (secreted embryonic alkaline phosphatase) reporter gene under the control of the […] minimal promoter fused to five NF-κB and AP-1-binding sites. Briefly, cells are seeded into Greiner 384 well plates (15000 cells per well for TLR7, 20,000 for TLR8 and 25,000 for TLR9) and then treated with test compounds in DMSO to yield a final dose response concentration range of 0.05 nM-50 μM. After a 30 minute compound pre-treatment at room temperature, the cells are then stimulated with a TLR7 ligand (gardiquimod at a final concentration of 7.5 μM), TLR8 ligand (R848 at a final concentration of 15.9 μM) or TLR9 ligand (ODN2006 at a final concentration of 5 nM) to activate NF-κB and AP-1 which induce the production of SLAP. After a 22 hour incubation at 37° C., […], SLAP levels are determined with the addition of HEK-Blue™ Detection reagent (Invivogen), a cell culture medium that allows for detection of SLAP, according to manufacturer's specifications. The percent inhibition is determined as the […] in the HEK-Blue signal present in wells treated with agonist plus DMSO alone compared to wells treated with a known inhibitor.

human TLR9 = target: T2, human TLR9 (Homo sapiens, UniProt Q9NR96); assay: TLR9 inhibition reporter assay (HEK-Blue cells, secreted embryonic alkaline phosphatase reporter)
T2 construct: host or cells: HEK-Blue cells (HEK293-derived reporter line)
T2 sequence (Q9NR96 26-1032): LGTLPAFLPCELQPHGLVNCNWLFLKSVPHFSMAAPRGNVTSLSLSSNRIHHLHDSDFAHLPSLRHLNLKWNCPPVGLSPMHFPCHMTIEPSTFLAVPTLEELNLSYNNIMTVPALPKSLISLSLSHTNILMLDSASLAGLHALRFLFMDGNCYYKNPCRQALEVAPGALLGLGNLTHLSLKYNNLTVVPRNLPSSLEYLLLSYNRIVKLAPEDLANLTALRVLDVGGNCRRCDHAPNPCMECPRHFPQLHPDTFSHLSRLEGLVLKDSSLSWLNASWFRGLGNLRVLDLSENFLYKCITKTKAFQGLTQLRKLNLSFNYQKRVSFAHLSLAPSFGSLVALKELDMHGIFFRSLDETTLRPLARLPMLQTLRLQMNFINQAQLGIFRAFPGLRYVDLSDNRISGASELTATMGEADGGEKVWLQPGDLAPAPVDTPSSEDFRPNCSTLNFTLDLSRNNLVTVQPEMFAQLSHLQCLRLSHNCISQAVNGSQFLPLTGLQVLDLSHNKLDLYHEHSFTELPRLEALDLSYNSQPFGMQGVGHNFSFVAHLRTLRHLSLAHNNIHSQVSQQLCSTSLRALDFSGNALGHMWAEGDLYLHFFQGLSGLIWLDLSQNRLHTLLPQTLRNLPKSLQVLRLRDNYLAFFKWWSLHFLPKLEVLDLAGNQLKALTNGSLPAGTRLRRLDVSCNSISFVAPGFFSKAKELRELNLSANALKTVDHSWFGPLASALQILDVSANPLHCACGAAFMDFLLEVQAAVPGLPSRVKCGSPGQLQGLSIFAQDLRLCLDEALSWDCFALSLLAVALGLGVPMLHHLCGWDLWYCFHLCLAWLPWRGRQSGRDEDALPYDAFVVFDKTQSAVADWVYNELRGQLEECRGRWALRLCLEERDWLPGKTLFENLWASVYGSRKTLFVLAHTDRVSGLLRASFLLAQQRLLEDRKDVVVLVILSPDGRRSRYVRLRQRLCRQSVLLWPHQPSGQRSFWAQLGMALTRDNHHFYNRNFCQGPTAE
Outline: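 Steps: seed receptor-specific HEK-Blue cells; add compound, 0.05 nM–50 μM; wait 30 min at room temperature; add final gardiquimod 7.5 μM, R848 15.9 μM or ODN2006 5 nM for TLR7, TLR8 or TLR9; incubate 22 h at 37 °C; detect NF-κB/AP-1-driven SEAP.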

human TLR7 = target: T3, human TLR7 (Homo sapiens, UniProt Q9NYK1); assay: TLR7 inhibition reporter assay (HEK-Blue cells, secreted embryonic alkaline phosphatase reporter); details: HEK-Blue cells overexpressing human TLR7, stimulated with gardiquimod 7.5 μM; read-out: TLR 7 IC50
T3 construct: host or cells: HEK-Blue cells (HEK293-derived reporter line)
T3 sequence (Q9NYK1 27-1049): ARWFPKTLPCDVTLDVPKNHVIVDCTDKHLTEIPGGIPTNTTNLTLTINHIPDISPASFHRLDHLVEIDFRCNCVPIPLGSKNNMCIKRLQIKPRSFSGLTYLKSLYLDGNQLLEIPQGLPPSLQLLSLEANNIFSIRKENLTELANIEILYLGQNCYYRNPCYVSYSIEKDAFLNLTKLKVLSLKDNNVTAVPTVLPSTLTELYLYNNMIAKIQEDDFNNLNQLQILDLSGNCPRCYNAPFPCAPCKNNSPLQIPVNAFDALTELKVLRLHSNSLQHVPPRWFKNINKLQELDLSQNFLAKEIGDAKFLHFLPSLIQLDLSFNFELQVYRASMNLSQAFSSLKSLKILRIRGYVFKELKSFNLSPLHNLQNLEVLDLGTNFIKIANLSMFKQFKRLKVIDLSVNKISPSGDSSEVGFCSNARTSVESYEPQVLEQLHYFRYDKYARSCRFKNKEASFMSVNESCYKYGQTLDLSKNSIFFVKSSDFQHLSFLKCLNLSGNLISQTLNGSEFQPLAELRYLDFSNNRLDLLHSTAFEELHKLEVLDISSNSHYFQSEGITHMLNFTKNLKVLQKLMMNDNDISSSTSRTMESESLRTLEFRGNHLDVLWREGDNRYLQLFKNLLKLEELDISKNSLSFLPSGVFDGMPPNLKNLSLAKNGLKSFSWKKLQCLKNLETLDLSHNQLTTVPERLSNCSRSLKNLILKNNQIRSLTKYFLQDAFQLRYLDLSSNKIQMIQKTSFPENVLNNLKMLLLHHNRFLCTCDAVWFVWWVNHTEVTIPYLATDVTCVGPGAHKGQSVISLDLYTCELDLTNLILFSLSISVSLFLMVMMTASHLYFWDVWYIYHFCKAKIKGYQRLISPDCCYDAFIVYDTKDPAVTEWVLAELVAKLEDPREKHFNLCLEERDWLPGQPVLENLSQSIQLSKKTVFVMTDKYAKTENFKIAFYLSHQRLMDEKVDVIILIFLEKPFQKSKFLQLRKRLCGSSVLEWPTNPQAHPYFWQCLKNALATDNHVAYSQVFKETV
Method: as §1, §2

[1] = HEK-Blue cells overexpressing human TLR9, stimulated with ODN2006 5 nM, 22 hour incubation, reporter readout
[2] = HEK-Blue cells overexpressing human TLR9, stimulated with ODN2006 5 nM, read-out: TLR 9 IC50
[3] = HEK-Blue human TLR9 reporter cells

SMILES | IC50 (human TLR8) [nM] | IC50 (human TLR9; [1]) [nM] | IC50 (human TLR9; [2]) [nM] | IC50 (human TLR7) [nM] | IC50 (human TLR9; [3]) [nM] | IC50 (human TLR9) [nM]
COc1ccc(-c2nc3cc(C4CCN(C5CCN(C6CC6)CC5)CC4)ccc3n2C)cc1OC [Example 35, 5-(1′-cyclopropyl-[1,4′-bipiperidin]-4-yl)-2-(3,4-dimethoxyphenyl)-1-methyl-1H-benzo[d]imidazole] | > 50000 | 850 | 852 | – | – | –
Cn1c(-c2ccc(S(C)(=O)=O)cc2)nc2ccc(C3CCN(C4CCN(C5COC5)CC4)CC3)c(F)c21 [Example 263, 7-fluoro-1-methyl-2-(4-(methylsulfonyl)phenyl)-6-(1′-(oxetan-3-yl)-[1,4′-bipiperidin]-4-yl)-1H-benzo[d]imidazole] | – | – | 1770 | 11900 | – | 1800
Cc1cc(-c2ccc(CN3CCCC3)cc2)cc2c1nc(-c1ccc(S(C)(=O)=O)cc1)n2C [Example 395, 1,4-dimethyl-2-(4-(methylsulfonyl)phenyl)-6-(4-(pyrrolidin-1-ylmethyl)phenyl)-1H-benzo[d]imidazole] | – | 1400 | 1360 | 11200 | – | –
CC(C)N1CCC(N2CCC(c3cc(F)c4nc(-c5ccc(S(C)(=O)=O)cc5)n(C5CC5)c4c3)CC2)CC1 [Example 115, 1-cyclopropyl-4-fluoro-6-(1′-isopropyl-[1,4′-bipiperidin]-4-yl)-2-(4-(methylsulfonyl)phenyl)-1H-benzo[d]imidazole] | – | 24 | – | 1900 | – | –

Continued by falling IC50 (human TLR9; [2]), values first:

IC50 (human TLR8) [nM] | IC50 (human TLR9; [1]) [nM] | IC50 (human TLR9; [2]) [nM] | IC50 (human TLR7) [nM] | IC50 (human TLR9; [3]) [nM] | IC50 (human TLR9) [nM] | SMILES
> 50000 | – | 600 | – | – | – | Cn1c(-c2ccc(S(C)(=O)=O)cc2)nc2ccc(C3CCN(C4CC5CCC(C4)N5C4COC4)CC3)c(F)c21 (centres unmarked) [Example 272, 7-fluoro-1-methyl-2-(4-(methylsulfonyl)phenyl)-6-(1-(8-(oxetan-3-yl)-8-azabicyclo[3.2.1]octan-3-yl)piperidin-4-yl)-1H-benzo[d]imidazole]
4500 | 590 | 588 | – | – | – | COc1cc(-c2nc3c(C)cc(C4CCN(C5CC6CCC(C5)N6CC(C)C)CC4)cc3n2C)cn2ncnc12 (centres unmarked) [Example 126, 6-(6-(1-(8-isobutyl-8-azabicyclo[3.2.1]octan-3-yl)piperidin-4-yl)-1,4-dimethyl-1H-benzo[d]imidazol-2-yl)-8-methoxy-[1,2,4]triazolo[1,5-a]pyridine]
> 50000 | – | 104 | – | 100 | – | Cn1c(-c2ccc(S(C)(=O)=O)cc2)nc2c(F)cc(C3CCN(C4CC5CCC(C4)N5C4COC4)CC3)cc21 (centres unmarked) [Example 287, 4-fluoro-1-methyl-2-(4-(methylsulfonyl)phenyl)-6-(1-(8-(oxetan-3-yl)-8-azabicyclo[3.2.1]octan-3-yl)piperidin-4-yl)-1H-benzo[d]imidazole]
7300 | 56 | 56 | – | – | – | Cc1cc(-c2ccc(CN3CCC(N4CCCC4)CC3)c(F)c2)cc2c1nc(-c1ccc(S(C)(=O)=O)cc1)n2C [Example 387, 6-(3-fluoro-4-((4-(pyrrolidin-1-yl)piperidin-1-yl)methyl)phenyl)-1,4-dimethyl-2-(4-(methylsulfonyl)phenyl)-1H-benzo[d]imidazole]
> 50000 | 19 | 19 | 2700 | – | – | COc1ccc(-c2nc3ccc(C4CCN(C5CCN(CC(C)C)CC5)CC4)cc3[nH]2)cc1OC [Example 28, 2-(3,4-dimethoxyphenyl)-6-(1′-isobutyl-[1,4′-bipiperidin]-4-yl)-1H-benzo[d]imidazole]
– | – | 18 | > 50000 | 18 | – | Cn1c(-c2ccc(S(C)(=O)=O)cc2)nc2ccc(C3CCN(C4CCCN(C5CCOCC5)CC4)CC3)c(F)c21 (centres unmarked) [Example 317, 7-fluoro-1-methyl-2-(4-(methylsulfonyl)phenyl)-6-(1-(1-(tetrahydro-2H-pyran-4-yl)azepan-4-yl)piperidin-4-yl)-1H-benzo[d]imidazole]
